Measured values as given in the CheMixHub ionic liquid set.

Test: xn = mol fraction of the nth substance listed

[Cl][Al]([Cl])[Cl] + CCCC[n+]1ccn(C)c1.[Cl-]
Conditions	electrical conductivity [S/m]	viscosity [mPa·s]
270.1 K, 101.3 kPa, x2 = 0.5263	0.158	–
270.1 K, 101.3 kPa, x2 = 0.5556	0.0827	–
275.6 K, 101.3 kPa, x2 = 0.3333	0.36	–
275.6 K, 101.3 kPa, x2 = 0.3636	0.38	–
275.6 K, 101.3 kPa, x2 = 0.4	0.412	–
275.6 K, 101.3 kPa, x2 = 0.4348	0.408	–
276.1 K, 101.3 kPa, x2 = 0.4762	0.415	–
276.1 K, 101.3 kPa, x2 = 0.5	0.423	–
276.1 K, 101.3 kPa, x2 = 0.5556	0.135	–
281.1 K, 101.3 kPa, x2 = 0.5263	0.328	–
281.1 K, 101.3 kPa, x2 = 0.5556	0.189	–
284.65 K, 101.3 kPa, x2 = 0.3333	0.578	–
284.65 K, 101.3 kPa, x2 = 0.3636	0.588	–
284.65 K, 101.3 kPa, x2 = 0.4	0.582	–
284.65 K, 101.3 kPa, x2 = 0.4348	0.599	–
284.65 K, 101.3 kPa, x2 = 0.4762	0.608	–
284.65 K, 101.3 kPa, x2 = 0.5	0.616	–
293.65 K, 101.3 kPa, x2 = 0.3333	0.774	–
293.65 K, 101.3 kPa, x2 = 0.3636	0.803	–
295.65 K, 101.3 kPa, x2 = 0.4	0.855	–
295.65 K, 101.3 kPa, x2 = 0.4348	0.911	–
295.65 K, 101.3 kPa, x2 = 0.4762	0.883	–
295.65 K, 101.3 kPa, x2 = 0.5	0.916	–
296.65 K, 101.3 kPa, x2 = 0.5263	0.639	–
296.65 K, 101.3 kPa, x2 = 0.5556	0.417	–
298.15 K, 101 kPa, x1 = 0.545	0.98	28.92
303.15 K, 101 kPa, x1 = 0.5238	–	26.36
303.15 K, 101 kPa, x1 = 0.5653	–	22.62
303.15 K, 101 kPa, x1 = 0.6429	–	17.68
303.15 K, 101 kPa, x1 = 0.643	1.06	17.7
303.15 K, 101 kPa, x1 = 0.667	1.05	–
303.15 K, 101.3 kPa, x2 = 0.3333	1.02	–
304.15 K, 101.3 kPa, x2 = 0.3333	1.05	–
304.65 K, 101.3 kPa, x2 = 0.5263	0.868	–
304.65 K, 101.3 kPa, x2 = 0.5556	0.586	–
305.15 K, 101.3 kPa, x2 = 0.3333	1.07	–
305.15 K, 101.3 kPa, x2 = 0.4	1.14	–
305.15 K, 101.3 kPa, x2 = 0.5	1.25	–
306.15 K, 101.3 kPa, x2 = 0.3636	1.16	–
306.15 K, 101.3 kPa, x2 = 0.4348	1.22	–
308.15 K, 101 kPa, x1 = 0.615	1.23	16.72
315.15 K, 101.3 kPa, x2 = 0.4762	1.57	–
315.15 K, 101.3 kPa, x2 = 0.5263	1.2	–
315.15 K, 101.3 kPa, x2 = 0.5556	0.851	–
316.15 K, 101.3 kPa, x2 = 0.3333	1.41	–
316.15 K, 101.3 kPa, x2 = 0.4	1.5	–
316.15 K, 101.3 kPa, x2 = 0.5	1.68	–
318.15 K, 101 kPa, x1 = 0.667	1.5	11.35
318.15 K, 101.3 kPa, x2 = 0.3636	1.54	–
318.15 K, 101.3 kPa, x2 = 0.4348	1.69	–
322.15 K, 101.3 kPa, x2 = 0.3333	1.62	–
323.15 K, 101 kPa, x1 = 0.5	–	16.06
323.15 K, 101 kPa, x1 = 0.6296	–	11.12
324.15 K, 101.3 kPa, x2 = 0.5	1.98	–
324.15 K, 101.3 kPa, x2 = 0.5263	1.5	–
324.15 K, 101.3 kPa, x2 = 0.5556	1.09	–
325.15 K, 101.3 kPa, x2 = 0.4	1.87	–
326.15 K, 101.3 kPa, x2 = 0.3636	1.82	–
326.15 K, 101.3 kPa, x2 = 0.4348	1.95	–
328.15 K, 101 kPa, x1 = 0.643	1.88	9.76
331.15 K, 101.3 kPa, x2 = 0.4762	2.25	–
332.15 K, 101.3 kPa, x2 = 0.3333	2	–
333.15 K, 101 kPa, x1 = 0.5238	–	12.28
333.15 K, 101 kPa, x1 = 0.6001	–	9.9
333.15 K, 101 kPa, x1 = 0.615	2.16	9.5
333.15 K, 101 kPa, x1 = 0.6296	–	9.15
333.15 K, 101.3 kPa, x2 = 0.4	2.21	–
333.15 K, 101.3 kPa, x2 = 0.5	2.43	–
334.15 K, 101.3 kPa, x2 = 0.3636	2.15	–
334.15 K, 101.3 kPa, x2 = 0.4348	2.33	–
334.15 K, 101.3 kPa, x2 = 0.5263	1.94	–
334.15 K, 101.3 kPa, x2 = 0.5556	1.42	–
340.15 K, 101.3 kPa, x2 = 0.3333	2.29	–
340.15 K, 101.3 kPa, x2 = 0.4762	2.65	–
342.15 K, 101.3 kPa, x2 = 0.3636	2.45	–
342.65 K, 101.3 kPa, x2 = 0.4348	2.72	–
343.15 K, 101 kPa, x1 = 0.5834	–	8.63
343.15 K, 101.3 kPa, x2 = 0.4	2.62	–
343.65 K, 101.3 kPa, x2 = 0.5	2.92	–
344.15 K, 101.3 kPa, x2 = 0.5263	2.39	–
345.15 K, 101.3 kPa, x2 = 0.5556	1.81	–
347.15 K, 101.3 kPa, x2 = 0.3333	2.58	–
347.15 K, 101.3 kPa, x2 = 0.4762	3.04	–
350.15 K, 101.3 kPa, x2 = 0.3636	2.86	–
351.15 K, 101.3 kPa, x2 = 0.4348	3.15	–
351.65 K, 101.3 kPa, x2 = 0.4	3.02	–
351.65 K, 101.3 kPa, x2 = 0.5	3.33	–
352.15 K, 101.3 kPa, x2 = 0.5263	2.81	–
352.15 K, 101.3 kPa, x2 = 0.5556	2.12	–
358.15 K, 101.3 kPa, x2 = 0.3333	3	–
358.15 K, 101.3 kPa, x2 = 0.4762	3.59	–
360.15 K, 101.3 kPa, x2 = 0.3636	3.29	–
360.15 K, 101.3 kPa, x2 = 0.4348	3.59	–
361.15 K, 101.3 kPa, x2 = 0.4	3.46	–
361.15 K, 101.3 kPa, x2 = 0.5	3.86	–
361.65 K, 101.3 kPa, x2 = 0.5263	3.32	–
361.65 K, 101.3 kPa, x2 = 0.5556	2.56	–
367.15 K, 101.3 kPa, x2 = 0.3333	3.41	–
367.15 K, 101.3 kPa, x2 = 0.4762	4.14	–
370.15 K, 101.3 kPa, x2 = 0.3636	3.7	–
370.15 K, 101.3 kPa, x2 = 0.4348	4.08	–
370.15 K, 101.3 kPa, x2 = 0.5263	3.76	–
370.15 K, 101.3 kPa, x2 = 0.5556	2.97	–
371.15 K, 101.3 kPa, x2 = 0.4	3.96	–
371.15 K, 101.3 kPa, x2 = 0.5	4.49	–
379.15 K, 101.3 kPa, x2 = 0.3333	4.07	–
379.15 K, 101.3 kPa, x2 = 0.4762	4.87	–

Conditions	electrical conductivity [S/m]
306.15 K, 101 kPa, frequency 1 MHz, x2 = 0.625	0.227

CC[N+](C)(CC)CCOC.O=S(=O)([N-]S(=O)(=O)C(F)(F)F)C(F)(F)F + CCCCn1cc[n+](C)c1C.O=S(=O)([N-]S(=O)(=O)C(F)(F)F)C(F)(F)F
100 kPa
Conditions	electrical conductivity [S/m]
293.15 K, x1 = 0.2	0.192
293.15 K, x1 = 0.5	0.202
298.15 K, x1 = 0.2	0.256
313.15 K, x1 = 0.5	0.517
313.15 K, x1 = 0.7	0.527
318.15 K, x1 = 0.2	0.594
323.15 K, x1 = 0.7	0.755
328.15 K, x1 = 0.1	0.82
328.15 K, x1 = 0.3	0.845
328.15 K, x1 = 0.4	0.847
333.15 K, x1 = 0.6	0.999
343.15 K, x1 = 0.1	1.24
343.15 K, x1 = 0.2	1.24

CCCCCCCCn1cc[n+](C)c1.O=[N+]([O-])[O-] + CCCO
101 kPa
Conditions	viscosity [mPa·s]
288.15 K, x2 = 0.258	356
288.15 K, x2 = 0.556	52
293.15 K, x2 = 0.47	75.4
293.15 K, x2 = 0.556	42.1
293.15 K, x2 = 0.671	19.89
298.15 K, x2 = 0.866	5.08
303.15 K, x2 = 0.258	147
303.15 K, x2 = 0.364	78.7
308.15 K, x2 = 0.556	24.01
313.15 K, x2 = 0.47	32.9
313.15 K, x2 = 0.671	10.83
318.15 K, x2 = 0.258	65.9
318.15 K, x2 = 0.671	9.5
328.15 K, x2 = 0.556	11.56

CCOP(=O)([O-])OCC.CC[n+]1ccn(C)c1 + CCCO + O
100 kPa
Conditions	viscosity [mPa·s]
293.15 K, x2 = 0.347, x3 = 0.3491	90
303.15 K, x2 = 0.294, x3 = 0.304	78
313.15 K, x2 = 0.15, x3 = 0.1487	93
313.15 K, x2 = 0.199, x3 = 0.1954	76
323.15 K, x2 = 0.048, x3 = 0.0487	80

CCCCCCCCn1cc[n+](C)c1.F[B-](F)(F)F + CCCOC(C)=O
298.15 K, 101 kPa
Conditions	viscosity [mPa·s]
x2 = 0.3984	44.84
x2 = 0.4496	33.85
x2 = 0.5551	18.72

CCCCCCCCCCCCCC[P+](CCCCCC)(CCCCCC)CCCCCC.O=S(=O)([N-]S(=O)(=O)C(F)(F)F)C(F)(F)F + CCC[N+]1(C)CCCC1.O=S(=O)([N-]S(=O)(=O)C(F)(F)F)C(F)(F)F
Conditions	electrical conductivity [S/m]
293.15 K, 101 kPa, x1 = 1	0.00719

O=C1CCCO1 + CCC[N+]1(C)CCCC1.O=S(=O)([N-]S(=O)(=O)C(F)(F)F)C(F)(F)F
101 kPa, x2 = 0
Conditions	viscosity [mPa·s]
288.15 K	2.146
318.15 K	1.398
348.15 K	0.99

CCCCCCCCn1cc[n+](C)c1.F[B-](F)(F)F + CCO
Conditions	viscosity [mPa·s]
283.15 K, 101 kPa, x2 = 0.081	720

CCCCCCCCn1cc[n+](C)c1.O=[N+]([O-])[O-] + CCO
101 kPa
Conditions	viscosity [mPa·s]
283.15 K, x2 = 0.554	48.2
288.15 K, x2 = 0.357	162
288.15 K, x2 = 0.868	4.46
293.15 K, x2 = 0.455	59.7
293.15 K, x2 = 0.767	8.59
298.15 K, x2 = 0.767	7.54
303.15 K, x2 = 0.554	21.79
303.15 K, x2 = 0.767	6.47
313.15 K, x2 = 0.767	4.99
318.15 K, x2 = 0.128	112
318.15 K, x2 = 0.357	39.8
318.15 K, x2 = 0.455	21.77
328.15 K, x2 = 0.128	53.6
328.15 K, x2 = 0.357	23.9
328.15 K, x2 = 0.554	9.29
